pIC50: −log10 of the molar value. Values after ≈ are worked out from the molar mass of the structure shown. Like-named read-outs stand apart in the source and are kept apart here.
Columns and labels:
[1] = tested on: Enterococcus faecalis ATCC 29212, CCM 4224; experiment: Antibacterial microdilution broth method, E. faecalis; assay type: cell-based; settings: Enterococcus faecalis
[2] = tested on: Candida glabrata 20/I; experiment: Antifungal microdilution broth method, C. glabrata; assay type: cell-based; settings: Nakaseomyces glabratus
Method in brief: (§1)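 Panel covers five yeasts and three filamentous fungi tested by a slightly modified EUCAST microdilution protocol. Growth medium is glucose-supplemented (2%) RPMI-1640 with L-glutamine at pH 7.0 (MOPS). Endpoints are judged visually from duplicate runs.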

[3] = tested on: Staphylococcus aureus ATCC 29213, CCM 4223; experiment: Antibacterial microdilution broth method, S. aureus; assay type: cell-based
[4] = tested on: Lichtheimia corymbifera 272; experiment: Antifungal microdilution broth method, L. corymbifera; assay type: cell-based
Method in brief: as §1

[5] = tested on: Mycobacterium kansasii 235/80; experiment: Antimycobacterial micromethod in Šula's medium, M. kansasii 235/80; assay type: cell-based
[6] = tested on: Candida albicans ATCC 44859; experiment: Antifungal microdilution broth method, C. albicans; assay type: cell-based
Method in brief: as §1

[7] = tested on: methicillin-resistant Staphylococcus aureus ATCC 43300, CCM 4750 (MRSA); experiment: Antibacterial microdilution broth method, MRSA; assay type: cell-based; settings: Staphylococcus aureus
[8] = tested on: M. kansasii 6509/96 (clinical isolate); experiment: Antimycobacterial micromethod in Šula's medium, M. kansasii 6509/96; assay type: cell-based; settings: Mycobacterium kansasii
[9] = tested on: Staphylococcus epidermidis H 6966/08; experiment: Antibacterial microdilution broth method, S. epidermidis; assay type: cell-based; settings: Staphylococcus epidermidis, H6966/08, S. epidermidis
[10] = tested on: Mycobacterium avium 330/88; experiment: Antimycobacterial micromethod in Šula's medium, M. avium; assay type: cell-based
[11] = tested on: ESBL-positive Klebsiella pneumoniae J 14368/08
[12] = tested on: Trichophyton interdigitale 445; experiment: Antifungal microdilution broth method, T. interdigitale; assay type: cell-based
Method in brief: as §1

[13] = tested on: Pseudomonas aeruginosa ATCC 27853, CCM 3955; experiment: Antibacterial microdilution broth method, P. aeruginosa; assay type: cell-based; settings: Pseudomonas aeruginosa, P. aeruginosa
[14] = tested on: Aspergillus fumigatus 231; experiment: Antifungal microdilution broth method, A. fumigatus; assay type: cell-based
Method in brief: as §1

[15] = tested on: Escherichia coli ATCC 25922, CCM 3954; experiment: Antibacterial microdilution broth method, E. coli; assay type: cell-based; settings: Escherichia coli
[16] = tested on: HepG2 cells; experiment: Cytotoxicity, CellTiter 96 assay; assay type: cell-based, human; settings: Homo sapiens, HepG2, 24 h, 24 h incubation
Protocol: HepG2, human hepatocellular carcinoma cells (ATCC HB-8065; passage 5–8) purchased from Health Protection Agency Culture Collections (ECACC, Salisbury, UK) were cultured in Minimum Essentials Eagle Medium supplemented with 10% fetal bovine serum, 1% L-glutamine solution and non-essential amino acid solution (Sigma-Aldrich, St. Louis, MO, USA) in a humidified atmosphere containing 5% CO2 at 37 °C. For subculturing, the cells were harvested after trypsin/EDTA (Sigma-Aldrich, St. Louis, USA) treatment at 37 °C. To evaluate cytotoxicity, the cells treated with the tested substances were used as experimental groups whereas untreated HepG2 cells served as control groups.
The cells were seeded in a density of 10 000 cells per well in a 96-well plate. The following day the cells were treated with each of the tested substances dissolved in DMSO (maximal incubation concentration of DMSO was 1% v/v). The tested substances were prepared at different incubation concentrations in triplicates according to their solubility. Simultaneously, the controls representing 100% cell viability, 0% cell viability (the cells treated with 10% DMSO), no cell control and vehiculum controls were also involved in triplicates. After 24 h incubation in a humidified atmosphere containing 5% CO2 at 37 °C, the reagent from the kit CellTiter 96 AQueous One Solution Cell Proliferation Assay (CellTiter 96; Promega, Fitchburg, WI, USA) was added. After 2 h incubation at 37 °C absorbance of samples was recorded at 490 nm (TECAN, Infinita M200, Grödig, Austria). A standard toxicological parameter IC50 was calculated by nonlinear regression from a semilogarithmic plot of incubation concentration versus percentage of absorbance relative to untreated controls using GraphPad Prism software (version 6; GraphPad Software, Inc., La Jolla, CA, USA).
The CellTiter 96 assay used is based on the reduction of tetrazolium dye in living cells to formazan, which is then determined colorimetrically. This reduction is related to availability of NADH or NADPH. The decline in levels of these metabolically important compounds in the cell causes that the production of formazan is reduced. For quantitative comparison of cytotoxicity, the parameter IC50 was used.

[17] = 24 h incubation, read-out: MIC EF 24 h
[18] = 48 h incubation, read-out: MIC EF 48 h
[19] = 24 h incubation, read-out: MIC SA 24 h
[20] = 48 h incubation, read-out: MIC SA 48 h
[21] = 235/80, 168 h, 7 days incubation at 37 °C, read-out: MIC M. kansasii 235/80 7 d
[22] = 235/80, 336 h, 14 days incubation at 37 °C, read-out: MIC M. kansasii 235/80 14 d
[23] = 235/80, 504 h, 21 days incubation at 37 °C, read-out: MIC M. kansasii 235/80 21 d
[24] = ATCC44859, 24 h, read-out: MIC CA 24 h
[25] = ATCC44859, 48 h, read-out: MIC CA 48 h
[26] = 24 h incubation, read-out: MIC MRSA 24 h
[27] = 48 h incubation, read-out: MIC MRSA 48 h
[28] = 168 h, 7 days incubation at 37 °C, read-out: MIC M. kansasii 6509/96 7 d
[29] = 336 h, 14 days incubation at 37 °C, read-out: MIC M. kansasii 6509/96 14 d
[30] = 504 h, 21 days incubation at 37 °C, read-out: MIC M. kansasii 6509/96 21 d
[31] = 24 h incubation, read-out: MIC SE 24 h
[32] = 48 h incubation, read-out: MIC SE 48 h
[33] = 330/88, 336 h, 14 days incubation at 37 °C, read-out: MIC M. avium 330/88 14 d
[34] = 330/88, 504 h, 21 days incubation at 37 °C, read-out: MIC M. avium 330/88 21 d
[35] = 24 h incubation, read-out: MIC PA 24 h
[36] = 48 h incubation, read-out: MIC PA 48 h
[37] = 24 h incubation, read-out: MIC EC 24 h
[38] = 48 h incubation, read-out: MIC EC 48 h

| SMILES | MIC [1, 17] [µM] | MIC [1, 18] [µM] | MIC ([2]; 24 h, read-out: MIC CG 24 h) [µM] | MIC ([2]; 48 h, read-out: MIC CG 48 h) [µM] | MIC [3, 19] [µM] | MIC [3, 20] [µM] | MIC ([4]; 24 h, read-out: MIC LC 24 h) [µM] | MIC ([4]; 48 h, read-out: MIC LC 48 h) [µM] | MIC [5, 21] [µM] | MIC [5, 22] [µM] | MIC [5, 23] [µM] | MIC [6, 24] [µM] | MIC [6, 25] [µM] | MIC [7, 26] [µM] | MIC [7, 27] [µM] | MIC [8, 28] [µM] | MIC [8, 29] [µM] | MIC [8, 30] [µM] | MIC [9, 31] [µM] | MIC [9, 32] [µM] | other results |
| --- | --- | --- | --- | --- | --- | --- | --- | --- | --- | --- | --- | --- | --- | --- | --- | --- | --- | --- | --- | --- | --- |
| O=C(O)c1ccc(N=Cc2cc(F)ccc2O)cc1 [1b, 4-[(5-Fluoro-2-hydroxybenzylidene)amino]benzoic acid] | > 500 | > 500 | > 500 | > 500 | > 500 | > 500 | > 500 | > 500 | 250 (≈ 64.8 µg/mL) | 500 (≈ 130 µg/mL) | 500 (≈ 130 µg/mL) | > 500 | > 500 | > 500 | > 500 | 500 (≈ 130 µg/mL) | 500 (≈ 130 µg/mL) | 500 (≈ 130 µg/mL) | > 500 | > 500 | MIC [10, 33]: > 1000 µM; MIC [10, 34]: > 1000 µM; MIC KP-E 24 h [11]: >500 µM; MIC KP-E 48 h [11]: >500 µM; MIC ([12]; 72 h, read-out: MIC TI 72 h): > 500 µM; MIC ([12]; 120 h, read-out: MIC TI 120 h): > 500 µM; MIC [13, 35]: > 500 µM; MIC [13, 36]: > 500 µM; MIC ([14]; 24 h, read-out: MIC AF 24 h): > 500 µM; MIC ([14]; 48 h, read-out: MIC AF 48 h): > 500 µM; MIC [15, 37]: > 500 µM; MIC [15, 38]: > 500 µM; pIC50 [16]: 3.30 |
| O=C(O)c1ccc(N=Cc2cc(Cl)ccc2O)cc1 [1c, 4-[(5-Chloro-2-hydroxybenzylidene)amino]benzoic acid] | > 500 | > 500 | 125 (≈ 34.5 µg/mL) | 125 (≈ 34.5 µg/mL) | > 500 | > 500 | > 125 | > 125 | 250 (≈ 68.9 µg/mL) | 250 (≈ 68.9 µg/mL) | 500 (≈ 138 µg/mL) | > 125 | > 125 | > 500 | > 500 | 500 (≈ 138 µg/mL) | 500 (≈ 138 µg/mL) | 1000 (≈ 276 µg/mL) | 62.5 (≈ 17.2 µg/mL) | 62.5 (≈ 17.2 µg/mL) | MIC [10, 33]: 1000 µM (≈ 276 µg/mL); MIC [10, 34]: > 1000 µM; MIC KP-E 24 h [11]: >500 µM; MIC KP-E 48 h [11]: >500 µM; MIC ([12]; 72 h, read-out: MIC TI 72 h): 125 µM (≈ 34.5 µg/mL); MIC ([12]; 120 h, read-out: MIC TI 120 h): 125 µM (≈ 34.5 µg/mL); MIC [13, 35]: > 500 µM; MIC [13, 36]: > 500 µM; MIC ([14]; 24 h, read-out: MIC AF 24 h): > 125 µM; MIC ([14]; 48 h, read-out: MIC AF 48 h): > 125 µM; MIC [15, 37]: > 500 µM; MIC [15, 38]: > 500 µM; pIC50 [16]: 3.84 |

Reference: paper PMC7023430, “4-Aminobenzoic Acid Derivatives: Converting Folate Precursor to Antimicrobial and Cytotoxic Agents” (Biomolecules, 2019)
